Measured values from patent US11673323B2, “Fluorescent binders for use in monitoring additive manufacturing processes” (General Electric Company, priority 2020, dated 2023).
“Also recorded” adds a separate entry of the source.

Assay: Solubility of neat fluorescent dye in water-based PVA/PAA binder solution
Conditions: 0.5 wt % fluorescent dye in binder solution (PVA, PAA, ethylene glycol, ethylene glycol butyl ether, water), stirred at 50-70° C.
Protocol: To determine whether neat dyes (e.g., unencapsulated) could be incorporated into binder solutions, various fluorescent materials were added to a binder solution including 1-7 wt % PVA, 0.5-3 wt % PAA, 2-6 wt % ethylene glycol, 4-10 wt % ethylene glycol butyl ether, and the balance water to form Samples F-H, and Comparative Samples 1-5. In particular, from 0.2-0.5 wt % of the fluorescent material (DayGlo, UMCCorp, Aldrich) was added to the binder solution and stirred on a hot plate at 50-70° C. to dissolve the dye into the binder solution.

Solubility at 0.5 wt % | Structure (SMILES) | Solubility at 0.5 wt % (listed as Sample H)
Partially soluble − | CCCN(CCO)c1nc(Nc2ccccc2)nc(Nc2ccc(/C=C/c3ccc(Nc4nc(Nc5ccccc5)nc(N(CCO)CCO)n4)cc3S(=O)(=O)[O-])c(S(=O)(=O)[O-])c2)n1.[Na+].[Na+] [FB 28] | –
Partially soluble − | O=S(=O)([O-])c1cc(Nc2nc(CCO)nc(Nc3ccccc3)n2)ccc1/C=C/c1ccc(Nc2nc(NCO)nc(Nc3ccccc3)n2)cc1S(=O)(=O)[O-].[Na+].[Na+] [FB 85] | –
Partially soluble − | CCCN(CCC)c1nc(Nc2ccccc2)nc(Nc2ccc(/C=C/c3ccc(Cc4nc(Cc5ccccc5)nc(N(OCC)OCC)n4)cc3S(=O)(=O)[O-])c(S(=O)(=O)[O-])c2)n1.[Na+].[Na+] [FB 113] | –

Structure (SMILES) | Solubility at 0.5 wt % | Solubility at 0.5 wt % (listed as Sample H)
O=S(=O)([O-])c1ccccc1C=Cc1ccc(-c2ccc(C=Cc3ccccc3S(=O)(=O)[O-])cc2)cc1.[Na+].[Na+] [FB 351] | Soluble | fully soluble; also recorded: good solubility
